In patent US10548319B2, “Compositions and methods for synthetic amphiphile-induced changes in plant root morphology” (The Curators of the University of Missouri, priority 2014, dated 2020):
Where “and” joins values, the source holds several entries; their conditions need not be identical. Equal entries are not always repeated. Where two headings read alike, the source gives them in different places. * marks the point of attachment. (CH3(CH2)17)2NCOCH2OCH2CO = CCCCCCCCCCCCCCCCCCN(CCCCCCCCCCCCCCCCCC)C(=O)COCC(=O)*; (C12H25)2NCOCH2CH2CO = CCCCCCCCCCCCN(CCCCCCCCCCCC)C(=O)CCC(=O)*; (C12)2NCOCH2CH2CO = CCCCCCCCCCCCN(CCCCCCCCCCCC)C(=O)CCC(=O)*; OC7 = heptyl ester (C-terminal), CCCCCCCO*; O(CH2)6CH3 = CCCCCCCO*; OC7H15 = CCCCCCCO*

Tested on: A. thaliana (Col-0) plant
Assay type: in vivo, Arabidopsis thaliana
Conditions: for Decrease in primary root length: vs PNS
Description: The effect treating a plant with a composition comprising a synthetic amphiphile on root morphology or other physical characteristics or attributes can be quantitated. For example, a change in primary root length can be determined by measuring the difference, if any, in primary root length of a plant treated with the composition compared to the average of a control sample of plants of the same type grown under identical conditions in the absence of the composition. A change in lateral root density can be determined by comparing the lateral root density of a plant treated with the composition to the average lateral root density of a sample grown under identical conditions in the absence of the composition. Lateral root density can be determined by dividing the number of lateral roots by the length of the primary root. In certain embodiments for any quantitated characteristic or attribute, the average value of the control is the average of a statistically significant population of control plants. For example, in certain illustrative embodiments disclosed herein, three trials of about 20 plants each were used to determine the average of the control.
Illustrative of certain embodiments, approximately 60 plants were grown on PNS media (no additives) and root lengths and the number of lateral roots were recorded for each. The data points were averaged to obtain the following baseline values: primary root length=40.4±3.8 mm and number of lateral roots=6.1±0.8, respectively. The lateral root density was obtained by dividing the number of lateral roots by the length (in mm) of the primary root. The control value was (6.1/[…]=) 0.15.
Test compounds were added to the growth medium as 0.2% by volume DMSO. […]
To make 500 mL PN media, 485 mL doubly distilled (“dd”) H2O was first added to an autoclave beaker. The following salts and nutrients were added to a beaker and mixed well: 5 mL of 250 mM of KPO4 (pH 5.5), 2.5 mL of 1M KNO3, 1 mL of 1M MgSO4, 1 mL of 1M Ca(NO3)2, 0.5 mL of Ferric EDTA (1000× or 49 mM) and 0.5 mL of Micronutrients (1000×). In a 1 L autoclaved bottle, 0.6% (3 g) of bacteriological agar was added, followed by 500 mL solution prepared above. The media was autoclaved using the Liquid-30 program.
PNS plates were used for plating sterile Arabidopsis thaliana (Columbia-0) seeds. A sterile stock of PNS agar was maintained. Sterile sucrose was added to PN media to make PNS media. To make PNS media containing 0.5% sucrose, 5 mL of 50% sucrose (sterile filtered) was added to 500 mL of PN agar and mixed well.
The stored PNS media was liquefied using a water bath and allowed to cool to 55° C. The type of plates, compounds, and concentrations to be used were confirmed while the media cooled. The plates were labeled on the cover and the bottom with all the relevant information. 50 mL sterile centrifuge tubes were used to measure 29,940 μL (29.94 mL) PNS media. A fresh sterile 50 mL tube was used for each plate. The desired amount and concentration of compound was added to the PNS media, mixed by inverting the tube and poured in the plate. Total volume of media and compound in each plate was kept constant at 30 mL. A maximum of 60 μL (0.2% by volume) compound was added per plate. For example: 60 μL of 25 mM compound was added to 29.94 mL PNS media to get final concentration of 50 μM compound in PNS media. Plates were incubated at room temperature for 2 hours before plating seeds on them.
Hands and bench area were washed thoroughly before beginning. Sterilizing solution was prepared in a sterile 15 mL centrifuge tube, by mixing 5 mL of 30% bleach and 5 μL of 10% Triton X-100. A. thaliana Col-0 seeds were added to sterile 1.5 mL micro-centrifuge tube. 500 μL of sterilizing solution (30% bleach+0.01% Triton X-100) was added to the seeds, vortexed for 3 seconds and incubated at room temperature for 8 minutes. After 8 minutes, bleach was removed and 1 mL autoclaved MilliQ water was added. […]

[1] = Table 2, 20 μM in PNS, no unit in table (method: millimeters)
[2] = Table 2, 50 μM in PNS, no unit in table (method: millimeters)
[3] = 100 nM in PNS, positive control

| Compound | Lateral root density (Table 2, 20 μM) | Number lateral roots (Table 2, 20 μM) | Percent decrease 1° root (Table 2, 20 μM) [%] | Primary root length [1] [mm] | Lateral root density (Table 2, 50 μM) | Number lateral roots (Table 2, 50 μM) | Percent decrease 1° root (Table 2, 50 μM) [%] | Primary root length [2] [mm] | further results |
| --- | --- | --- | --- | --- | --- | --- | --- | --- | --- |
| c1ccc(CN2CCOCCOCCN(CCCCCCCCCCCCCCCCN3CCOCCOCCN(CCCCCCCCCCCCCCCCN4CCOCCOCCN(Cc5ccccc5)CCOCCOCC4)CCOCCOCC3)CCOCCOCC2)cc1 [C16 hydraphile (3)] | – | – | – | – | – | – | – | – | Primary root length (hydraphile 10 μM in PNS media): 23 ± 0.4 mm; Primary root length (hydraphile 10 μM in PNS media, listed as compound 3): 23±0.4 mm; Decrease in primary root length (hydraphile 10 μM): 39%; Primary root length (hydraphile 20 μM in PNS media): 15 ± 0.5 mm; Primary root length (hydraphile 20 μM in PNS media, listed as compound 3): 15±0.5 mm; Decrease in primary root length (hydraphile 20 μM): 61%; Effect on growth / root development (hydraphile 50 μM in PNS media): inhibit the primary root development; Primary root length (hydraphile 50 μM in PNS media): 4 ± 0.2 mm; Primary root length (hydraphile 50 μM in PNS media, listed as compound 3): 4±0.2 mm; Decrease in primary root length (hydraphile 50 μM): 90% |
| CCCCCCCCCCCCCCN1CCOCCOCCN(CCCCCCCCCCCCCC)CCOCCOCC1 [C14 lariat ether] | 0.17 | 6.9 | 0 | 41.5 | 0.21 | 4.9 | 48.4 | 20.9 | – |
| CCCCCCCC(=O)N1CCOCCOCCN(C(=O)CCCCCCC)CCOCCOCC1 [C8 lariat ether amide, N,N′-Dioctanoyl-4,13-diaza-18-crown-6] | – | – | – | – | 0.17 | 5.2 | 23.2 | 31.2 | – |
| CCCCCCCCCCCCCC(=O)N1CCOCCOCCN(C(=O)CCCCCCCCCCCCC)CCOCCOCC1 [C14 lariat ether amide] | – | – | – | – | 0.21 | 8.6 | 0 | 41.9 | – |
| CCCCCC(=O)N1CCOCCOCCN(C(=O)CCCCC)CCOCCOCC1 [C6 lariat ether amide] | – | – | – | – | 0.15 | 5.6 | 4.9 | 38.6 | – |
| CCCCCCCCC(=O)N1CCOCCOCCN(C(=O)CCCCCCCC)CCOCCOCC1 [C9 lariat ether amide] | 0.19 | 1.6 | 78.2 | 9.2 | 0.13 | 2 | 62.6 | 15.7 | – |
| CCCCCCC(=O)N1CCOCCOCCN(C(=O)CCCCCC)CCOCCOCC1 [C7 lariat ether amide] | 0.21 | 4.5 | 45.3 | 22.9 | 0.65 | 4.2 | 82.5 | 7.3 | – |
| [CH3(CH2)17]2NCOCH2OCH2CO-Gly-Gly-Gly-Pro-Gly-Gly-Gly-O(CH2)6CH3 ({(CH3(CH2)17)2NCOCH2OCH2CO}-GGGPGGG-{O(CH2)6CH3}; SMILES CCCCCCCCCCCCCCCCCCN(CCCCCCCCCCCCCCCCCC)C(=O)COCC(=O)NCC(=O)NCC(=O)NCC(=O)N1CCC[C@H]1C(=O)NCC(=O)NCC(=O)NCC(=O)OCCCCCCC) [Compound 9] | – | – | – | – | – | – | – | – | Effect on number of lateral roots relative to control (SAT 50 μM): within experimental error of the PNS control; Effect on primary root length relative to control (SAT 50 μM): within experimental error of the PNS control; Lateral root density (SAT 50 μM in PNS): 0.17 ± 0.02; Number of lateral roots (SAT 50 μM in PNS): 6.8 ± 1.3; Primary root length (SAT 50 μM in PNS): 40.5 ± 3.4 mm |
| CCCCCCCCN1CCOCCOCCN(CCCCCCCC)CCOCCOCC1 [C8 lariat ether, N,N′-Di-n-octyl-4,13-diaza-18-crown-6] | 0.64 | 5.1 | 83.4 | 6.8 | 1.38 | 2.2 | 96.1 | 1.6 | Lateral root density with increasing concentration (0 μM to 50 μM, FIG. 7): Linear increase in lateral root density; Change in root morphology (lariat ether 20 μM): significant change in root morphology |
| (C12)2NCOCH2CH2CO-AAAPGGG-OC7 ({(C12)2NCOCH2CH2CO}-AAAPGGG-OC7; SMILES CCCCCCCCCCCCN(CCCCCCCCCCCC)C(=O)CCC(=O)N[C@@H](C)C(=O)N[C@@H](C)C(=O)N[C@@H](C)C(=O)N1CCC[C@H]1C(=O)NCC(=O)NCC(=O)NCC(=O)OCCCCCCC) [Compound 10] | – | – | – | – | – | – | – | – | Lateral root density (SAT 50 μM in PNS): 0.12; Number of lateral roots (SAT 50 μM in PNS): 3.4; Primary root length (SAT 50 μM in PNS): 28.4 mm |
| CCCCCCCCCCCCC(=O)N1CCOCCOCCN(C(=O)CCCCCCCCCCCC)CCOCCOCC1 [C13 lariat ether amide] | 0.14 | 5.1 | 11.8 | 36.9 | 0.14 | 4.2 | 14.9 | 35.6 | – |
| CCCCCCCCCC(=O)N1CCOCCOCCN(C(=O)CCCCCCCCC)CCOCCOCC1 [C10 lariat ether amide, N,N′-Didecanoyl-4,13-diaza-18-crown-6] | – | – | – | – | 0.19 | 0.6 | 92.4 | 3.1 | – |
| O=C(O)COc1ccc(Cl)cc1Cl [2,4-D, 2,4-Dichlorophenoxyacetic acid, reference compound] | – | – | – | – | – | – | – | – | Lateral root density [3]: 0.85 and 0.85 ± 0.12; Number of lateral roots [3]: 3.4±0.6; Primary root length [3]: 3.9±0.6 mm |
| CCCCCCN1CCOCCOCCN(CCCCCC)CCOCCOCC1 [C6 lariat ether] | 0.18 | 6.6 | 5.9 | 38.3 | 0.14 | 4.6 | 18.8 | 33 | – |
| c1ccc(CN2CCOCCOCCN(CCCCCCCCCCCCCCN3CCOCCOCCN(CCCCCCCCCCCCCCN4CCOCCOCCN(Cc5ccccc5)CCOCCOCC4)CCOCCOCC3)CCOCCOCC2)cc1 [C14 hydraphile (2)] | – | – | – | – | – | – | – | – | Number of lateral roots (hydraphile 20 μM): 6.2±0.3; Primary root length (hydraphile 20 μM in PNS media): 14 ± 2 mm; Primary root length (hydraphile 20 μM in PNS media, listed as compound 2): 14±2 mm; Decrease in primary root length (hydraphile 20 μM): 63%; Increase in lateral root density (hydraphile 20 μM, vs control): 4 fold; Lateral root density (hydraphile 20 μM, lateral roots divided by primary root length): 0.48±0.08; Primary root length (hydraphile 50 μM in PNS media): 0.7 ± 0.2 mm; Primary root length (hydraphile 50 μM in PNS media, listed as compound 2): 0.7±0.2 mm; Decrease in primary root length (hydraphile 50 μM): 98% |
| (C12H25)2NCOCH2CH2CO-GGGPSGS-OC7H15 ({(C12H25)2NCOCH2CH2CO}-GGGPSGS-OC7H15; SMILES CCCCCCCCCCCCN(CCCCCCCCCCCC)C(=O)CCC(=O)NCC(=O)NCC(=O)NCC(=O)N1CCC[C@H]1C(=O)N[C@@H](CO)C(=O)NCC(=O)N[C@@H](CO)C(=O)OCCCCCCC) [Compound 15] | – | – | – | – | – | – | – | – | Effect on number of lateral roots relative to control (SAT 50 μM): does not show such a dramatic effect; Effect on primary root length relative to control (SAT 50 μM): dramatic reduction in primary root length; Overall effect on growth / root morphology relative to control (SAT 50 μM): shorter primary root and new lateral roots; Lateral root density (SAT 50 μM in PNS): 0.51 ± 0.03; Number of lateral roots (SAT 50 μM in PNS): 4.5 ± 0.4; Primary root length (SAT 50 μM in PNS): 9.0 ± 1.2 mm |
| CCCCCCCCCCCC(=O)N1CCOCCOCCN(C(=O)CCCCCCCCCCC)CCOCCOCC1 [C12 lariat ether amide] | – | – | – | – | 0.18 | 7 | 1.73 | 39.9 | – |
